Patent publication US7786299B2, “Methods for treating diseases or conditions using dihydropteridinone compounds” (Boehringer Ingelheim Pharma GmbH & Co. KG, priority 2003, dated 2010)
pIC50: −log10 of the molar value.

Assays:
[1] = tested on: HeLaS3 cells; assay: Measurement of cytotoxicity on cultivated human tumour cells (AlamarBlue); assay type: cell-based; conditions: HeLa in Table 1; unit inferred
Method: The activity of the compounds according to the invention was determined in the cytotoxicity test on cultivated human tumour cells and/or in a FACS analysis, for example on HeLaS3 cells.
Measurement of Cytotoxicity on Cultivated Human Tumour Cells
To measure the cytotoxicity on cultivated human tumour cells, cells of the cervical cancer tumour cell line HeLaS3 (obtained from American Type Culture Collection (ATCC)) in Ham's F12 Medium (Life Technologies) and 10% foetal calf serum (Life Technologies) were cultivated and harvested in the logarithmic growth phase. Then the HeLaS3 cells were placed in 96-well plates (Costar) at a density of 1000 cells per well and incubated overnight in an incubator (at 37° C. and 5% CO2), while on each plate 6 wells were filled only with medium (3 wells as a control of the medium, 3 wells for incubation with reduced AlamarBlue). The active substances were added to the cells in various concentrations (dissolved in DMSO; final concentration: 1%) (in each case as a triple measurement). After 72 hours' incubation, 20 μl of AlamarBlue (AccuMed International) were added to each well, and the cells were incubated for a further 7 hours. As a control, 20 μl of reduced Alamar Blue (AlamarBlue reagent which had been autoclaved for 30 min) were added to 3 wells. After 7 h incubation the colour change of the AlamarBlue reagent in the individual wells was determined in a Perkin Elmer fluorescence spectrophotometer (excitation 530 nm, emission 590 nm, slits 15, integrate time 0.1). The amount of AlamarBlue reagent reacted represents the metabolic activity of the cells. The relative cell activity was calculated as a percentage of the control (HeLa S3 cells without inhibitor) and the active substance concentration which inhibits the cell activity by 50% (IC^50) was obtained. The values were calculated from the average of three individual measurements, correcting for the control value (medium control).

[2] = tested on: H460-VINC; assay: Cytotoxicity on H460-VINC cells (Table 1; method not given); assay type: cell-based; conditions: H460-VINC of Table 1; unit inferred

## COc1cc(C(=O)N[C@H]2CC[C@H](N3CCCC3)CC2)ccc1Nc1ncc2c(n1)N(C1CCCCC1)[C@H](C)C(=O)N2C [Example 98]
[1]
  pIC50: 7.11
[2]
  pIC50: 5.88

## CC1C(=O)N(C)c2cnc(Nc3ccc(C(=O)NCCCN4CCOCC4)cc3)nc2N1C1CCCC1 (centres unmarked) [Example 69]
[1]
  pIC50: 7.26
[2]
  pIC50: 6.20

## CC(C)N1CCC(NC(=O)c2ccc(Nc3ncc4c(n3)N(CC(C)(C)C)C(C)C(=O)N4C)cc2)CC1 (centres unmarked) [Example 12]
[1]
  pIC50: 7.00
[2]
  pIC50: 5.97

## CC[C@@H]1C(=O)N(C)c2cnc(Nc3ccc(C(=O)N[C@H]4CC[C@H](N5CCOCC5)CC4)cc3OC)nc2N1C1CCCCC1 [Example 97]
[1]
  pIC50: 7.49
[2]
  pIC50: 7.18

## COc1cc(C(=O)NC2CCC(N3CCOCC3)CC2)ccc1Nc1ncc2c(n1)N(CCC(C)C)C(C)C(=O)N2C (centres unmarked) [Example 9]
[1]
  pIC50: 7.24
[2]
  pIC50: 6.68

## COc1cc(C(=O)NC2CCN(C(C)C)CC2)ccc1Nc1ncc2c(n1)N(CC(C)(C)C)C(C)C(=O)N2C (centres unmarked) [Example 7]
[1]
  pIC50: 7.08
[2]
  pIC50: 6.06

## CCC1C(=O)N(C)c2cnc(Nc3ccc(C(=O)NCC(C)(C)CN(C)C)cc3OC)nc2N1C1CCCC1 (centres unmarked) [Example 58]
[1]
  pIC50: 8.00
[2]
  pIC50: 7.64

## CC[C@@H]1C(=O)N(C)c2cnc(Nc3ccc(C(=O)NCCN4CCCC4)cc3OC)nc2N1CCC(C)C [Example 170]
[1]
  pIC50: 7.35
[2]
  pIC50: 6.37

## COc1cc(C(=O)NC2CCC(N3CCOCC3)CC2)ccc1Nc1ncc2c(n1)N(C1CCCCC1)C(C)C(=O)N2C (centres unmarked) [Example 137]
[1]
  pIC50: 7.41
[2]
  pIC50: 6.83

## COc1cc(C(=O)NC2CCC(N(C)C)CC2)ccc1Nc1ncc2c(n1)N(C1CCCC1)C(C)C(=O)N2C (centres unmarked) [Example 13]
[1]
  pIC50: 7.59
[2]
  pIC50: 5.88

## CC[C@@H]1C(=O)N(C)c2cnc(Nc3ccc(C(=O)NC4CCN(C)CC4)cc3OC)nc2N1c1ccccc1 [Example 88]
[1]
  pIC50: 7.70
[2]
  pIC50: 5.99

## CCN1CC[C@@H](NC(=O)c2ccc(Nc3ncc4c(n3)N(CCC(C)C)[C@H](C)C(=O)N4C)c(OC)c2)C1 [Example 37]
[1]
  pIC50: 7.14
[2]
  pIC50: 6.12

## COc1cc(C(=O)NC2CC3CCC(C2)N3C)ccc1Nc1ncc2c(n1)N(C1CCCCC1)[C@H](C)C(=O)N2C (some centres unmarked) [Example 91]
[1]
  pIC50: 7.39
[2]
  pIC50: 5.75

## CC[C@@H]1C(=O)N(C)c2cnc(Nc3ccc(C(=O)NCCN4CCOCC4)cc3OC)nc2N1CCC(C)C [Example 156]
[1]
  pIC50: 7.32
[2]
  pIC50: 6.32

## COc1cc(C(=O)NCC(C)(C)CN(C)C)ccc1Nc1ncc2c(n1)N(C1CCCCC1)[C@H](C)C(=O)N2C [Example 86]
[1]
  pIC50: 7.42
[2]
  pIC50: 7.62

## CC1C(=O)N(C)c2cnc(Nc3ccc(C(=O)NC4CC5CCC(C4)N5C)cc3)nc2N1C1CCCC1 (centres unmarked) [Example 68]
[1]
  pIC50: 7.04
[2]
  pIC50: 5.91

## CC[C@@H]1C(=O)N(C)c2cnc(Nc3ccc(C(=O)NCCCN4CCCCC4)cc3OC)nc2N1CCC(C)C [Example 169]
[1]
  pIC50: 7.36
[2]
  pIC50: 6.30

## C[C@@H]1C(=O)N(C)c2cnc(Nc3ccc(C(=O)NC4CC(C)(C)N(C)C(C)(C)C4)cc3)nc2N1C1CCCC1 [Example 31]
[1]
  pIC50: 7.64
[2]
  pIC50: ≤ 5.52

## Cc1cc(C(=O)NC2CCN(C)CC2)ccc1Nc1ncc2c(n1)N(C1CCCC1)[C@H](C)C(=O)N2C [Example 83]
[1]
  pIC50: 7.16
[2]
  pIC50: 6.58

## COc1cc(C(=O)NC2CCN(C)CC2)ccc1Nc1ncc2c(n1)N(CC(C)C)C(C)(C)C(=O)N2C [Example 61]
[1]
  pIC50: 7.19
[2]
  pIC50: 5.98

## CCC1C(=O)N(C)c2cnc(Nc3ccc(C(=O)NC4CCN(C)CC4)cc3OC)nc2N1C1CCCC1 (centres unmarked) [Example 46]
[1]
  pIC50: 7.92
[2]
  pIC50: 6.68

## CCN1CCC(NC(=O)c2ccc(Nc3ncc4c(n3)N(C3CCCC3)C(C)C(=O)N4C)c(OC)c2)CC1 (centres unmarked) [Example 17]
[1]
  pIC50: 7.62
[2]
  pIC50: 6.14

## COc1cc(C(=O)NC2CCN(C)CC2)ccc1Nc1ncc2c(n1)N(CC(C)(C)C)C(C)C(=O)N2C (centres unmarked) [Example 145]
[1]
  pIC50: 7.37
[2]
  pIC50: ≤ 5.52

## CCC1C(=O)N(C)c2cnc(Nc3ccc(C(=O)NC4CCC(N(C)C)CC4)cc3OC)nc2N1C1CCCC1 (centres unmarked) [Example 23]
[1]
  pIC50: 7.89
[2]
  pIC50: 6.17

## COc1cc(C(=O)NC(C)(C)CN2CCCC2)ccc1Nc1ncc2c(n1)N(CC(C)(C)C)C(C)C(=O)N2C (centres unmarked) [Example 50]
[1]
  pIC50: 7.09
[2]
  pIC50: 6.36

## CC1C(=O)N(C)c2cnc(Nc3ccc(C(=O)NC4CCN(C)CC4)cc3)nc2N1c1ccccc1 (centres unmarked) [Example 48]
[1]
  pIC50: 7.08
[2]
  pIC50: ≤ 5.52

## COc1cc(C(=O)NCCN(C)C)ccc1Nc1ncc2c(n1)N(C1CCCC1)C(C)C(=O)N2C (centres unmarked) [Example 67]
[1]
  pIC50: 7.28
[2]
  pIC50: 6.25

## CCC1C(=O)N(C)c2cnc(Nc3ccc(C(=O)NC4CC5CCC(C4)N5C)cc3OC)nc2N1C1CCCC1 (centres unmarked) [Example 45]
[1]
  pIC50: 7.66
[2]
  pIC50: 6.10

## CC[C@@H]1C(=O)N(C)c2cnc(Nc3ccc(C(=O)NCCN(CC)CC)cc3OC)nc2N1CCC(C)C [Example 158]
[1]
  pIC50: 7.37
[2]
  pIC50: 6.27

## C[C@@H]1C(=O)N(C)c2cnc(Nc3ccc(C(=O)NC4CCN(C)CC4)cc3)nc2N1C1CCCCC1 [Example 85]
[1]
  pIC50: 7.60
[2]
  pIC50: 6.12

## CCC1C(=O)N(C)c2cnc(Nc3ccc(C(=O)NC4CC(C)(C)N(C)C(C)(C)C4)cc3OC)nc2N1C1CCCC1 (centres unmarked) [Example 21]
[1]
  pIC50: 8.05
[2]
  pIC50: 6.31

## CCC1C(=O)N(C)c2cnc(Nc3ccc(C(=O)NC4CCC(N5CCCC5)CC4)cc3OC)nc2N1C1CCCC1 (centres unmarked) [Example 19]
[1]
  pIC50: 7.89
[2]
  pIC50: 6.13

## COc1cc(C(=O)NCC(C)(C)CN(C)C)ccc1Nc1ncc2c(n1)N(CCC(C)C)C(C)(C)C(=O)N2C [Example 53]
[1]
  pIC50: 7.12
[2]
  pIC50: 6.61

## COc1cc(C(=O)NC2CCN(C3CCOCC3)CC2)ccc1Nc1ncc2c(n1)N(C1CCCCC1)C(C)C(=O)N2C (centres unmarked) [Example 120]
[1]
  pIC50: 7.85
[2]
  pIC50: 6.43

## CC[C@@H]1C(=O)N(C)c2cnc(Nc3ccc(C(=O)NCCN4CCOCC4)cc3OC)nc2N1C(C)C [Example 71]
[1]
  pIC50: 7.46
[2]
  pIC50: 6.64

## CCN1CCC(NC(=O)c2ccc(Nc3ncc4c(n3)N(C(C)C)C(C)C(=O)N4C)c(OC)c2)CC1 (centres unmarked) [Example 20]
[1]
  pIC50: 7.08
[2]
  pIC50: ≤ 5.52

## CCC1C(=O)N(C)c2cnc(Nc3ccc(C(=O)NC4CCN(C5CCOCC5)CC4)cc3OC)nc2N1C1CCCC1 (centres unmarked) [Example 116]
[1]
  pIC50: 8.22
[2]
  pIC50: 6.76

## CCC1C(=O)N(C)c2cnc(Nc3ccc(C(=O)NC(C)(C)CN4CCCC4)cc3OC)nc2N1C1CCCC1 (centres unmarked) [Example 55]
[1]
  pIC50: 7.89
[2]
  pIC50: 7.07

## CCC1C(=O)N(C)c2cnc(Nc3ccc(C(=O)NC4CCC(N5CCN(C)CC5)CC4)cc3OC)nc2N1C(C)C (centres unmarked) [Example 113]
[1]
  pIC50: 7.43
[2]
  pIC50: 6.16

## COc1cc(C(=O)NC2CCC(N3CCCCC3)CC2)ccc1Nc1ncc2c(n1)N(C1CCCCC1)C(C)C(=O)N2C (centres unmarked) [Example 126]
[1]
  pIC50: 7.29
[2]
  pIC50: 6.13

## CCN1CCC(NC(=O)c2ccc(Nc3ncc4c(n3)N(CC(C)(C)C)C(C)C(=O)N4C)c(OC)c2)CC1 (centres unmarked) [Example 6]
[1]
  pIC50: 7.28
[2]
  pIC50: 6.09

## COc1cc(C(=O)NC2CCN(C)CC2)ccc1Nc1ncc2c(n1)N(c1ccccc1)[C@H](C)C(=O)N2C [Example 41]
[1]
  pIC50: 7.08
[2]
  pIC50: ≤ 5.52

## COc1cc(C(=O)NC2CC(C)(C)N(C)C(C)(C)C2)ccc1Nc1ncc2c(n1)N(CCC(C)C)C(C)C(=O)N2C (centres unmarked) [Example 1]
[1]
  pIC50: 7.34
[2]
  pIC50: 6.22

## CCC1C(=O)N(C)c2cnc(Nc3ccc(C(=O)NC4CCC(N5CCOCC5)CC4)cc3OC)nc2N1C(C)C (centres unmarked) [Example 28]
[1]
  pIC50: 7.74
[2]
  pIC50: 6.80

## COc1cc(C(=O)NC2CC(C)(C)N(C)C(C)(C)C2)ccc1Nc1ncc2c(n1)N(CC(C)(C)C)C(C)C(=O)N2C (centres unmarked) [Example 5]
[1]
  pIC50: 7.28
[2]
  pIC50: 6.06

## CCC1C(=O)N(C)c2cnc(Nc3ccc(C(=O)NC4CCC(N5CCCC5)CC4)cc3OC)nc2N1C(C)C (centres unmarked) [Example 135]
[1]
  pIC50: 7.92
[2]
  pIC50: 6.16

## CC[C@@H]1C(=O)N(C)c2cnc(Nc3ccc(C(=O)NC4CCN(C)CC4)cc3OC)nc2N1C1CCCCC1 [Example 96]
[1]
  pIC50: 7.96
[2]
  pIC50: 6.24

## CCN1CCC(NC(=O)c2ccc(Nc3ncc4c(n3)N(C3CCCCC3)C(C)C(=O)N4C)c(OC)c2)CC1 (centres unmarked) [Example 119]
[1]
  pIC50: 8.10
[2]
  pIC50: 6.36

## COc1cc(C(=O)NC2CC(C)(C)N(C)C(C)(C)C2)ccc1Nc1ncc2c(n1)N(C1CCCC1)[C@H](C)C(=O)N2C [Example 30]
[1]
  pIC50: 7.92
[2]
  pIC50: 6.24

## COc1cc(C(=O)NC2CCN(Cc3ccccc3)CC2)ccc1Nc1ncc2c(n1)N(C1CCCCC1)C(C)C(=O)N2C (centres unmarked) [Example 115]
[1]
  pIC50: 7.80
[2]
  pIC50: 7.12

## CC[C@@H]1C(=O)N(C)c2cnc(Nc3ccc(C(=O)NC(C)(C)CN(C)C)cc3OC)nc2N1CCC(C)C [Example 90]
[1]
  pIC50: 7.49
[2]
  pIC50: 6.86

## CCN(CC)CCNC(=O)c1ccc(Nc2ncc3c(n2)N(C2CCCC2)C(C)C(=O)N3C)c(OC)c1 (centres unmarked) [Example 62]
[1]
  pIC50: 7.24
[2]
  pIC50: 6.27
